Reference: US9273058B2 (BRISTOL-MYERS SQUIBB COMPANY, priority 2013, dated 2016)

Legend:
CK1δ = CK1δ (Homo sapiens, UniProt P48730); experiment: CK1δ kinase assay (Caliper LabChip electrophoretic separation of fluoresceinated peptide substrate and product); format: biochemical; settings: 200 pM CK1δ, 50 μM ATP, 1.5 μM peptide, 22 hours at room temperature; read-out: CK1δ IC50 range
In short: (§1)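 Kinase reactions ran 22 h at room temperature, were stopped with EDTA, and phosphorylated product was separated electrophoretically from unphosphorylated fluoresceinated peptide. Compounds were tested at eleven concentrations from 10 mM DMSO stocks. IC50 by non-linear regression.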

CK1ε = CK1ε (Homo sapiens, UniProt P49674); experiment: CK1ε kinase assay (Caliper LabChip electrophoretic separation of fluoresceinated peptide substrate and product); format: biochemical; settings: 200 pM CK1ε, 50 μM ATP, 1.5 μM peptide, 22 hours at room temperature; read-out: CK1ε IC50 range
Sequence of CK1ε (P49674 whole entry): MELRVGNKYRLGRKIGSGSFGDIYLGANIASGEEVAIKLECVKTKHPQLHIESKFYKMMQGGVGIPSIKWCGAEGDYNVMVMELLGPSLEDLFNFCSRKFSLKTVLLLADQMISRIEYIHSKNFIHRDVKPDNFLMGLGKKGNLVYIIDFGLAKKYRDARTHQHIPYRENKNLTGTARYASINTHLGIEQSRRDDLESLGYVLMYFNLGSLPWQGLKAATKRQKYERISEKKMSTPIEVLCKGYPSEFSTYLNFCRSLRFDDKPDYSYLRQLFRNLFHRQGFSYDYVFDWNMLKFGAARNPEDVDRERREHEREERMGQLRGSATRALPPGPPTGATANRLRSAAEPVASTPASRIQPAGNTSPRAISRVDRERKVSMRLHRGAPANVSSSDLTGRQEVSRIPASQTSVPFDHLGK
In short: as §1

Sequence of CK1δ (P48730 whole entry): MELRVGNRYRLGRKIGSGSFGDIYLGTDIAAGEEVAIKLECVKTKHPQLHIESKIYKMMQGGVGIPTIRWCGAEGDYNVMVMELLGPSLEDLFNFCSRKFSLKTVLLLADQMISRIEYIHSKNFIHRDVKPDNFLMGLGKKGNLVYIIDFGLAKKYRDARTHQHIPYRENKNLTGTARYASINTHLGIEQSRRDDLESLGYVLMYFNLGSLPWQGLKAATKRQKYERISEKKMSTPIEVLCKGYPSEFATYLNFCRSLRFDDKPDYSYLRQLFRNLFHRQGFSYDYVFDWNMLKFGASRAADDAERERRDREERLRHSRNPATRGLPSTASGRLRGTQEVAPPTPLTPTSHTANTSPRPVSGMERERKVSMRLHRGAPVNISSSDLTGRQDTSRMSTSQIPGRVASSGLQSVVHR

SMILES	IC50 (CK1δ) [nM]	IC50 (CK1ε) [nM]
CC(C)(NC(=O)N1CCn2nc(-c3ccc(F)c(Cl)c3)c(C(N)=O)c2C1)C1CCC(F)(F)CC1 [Compound 232, 2-(3-Chloro-4-fluorophenyl)-N^5-(2-(4,4-difluorocyclohexyl)propan-2-yl)-6,7-dihydropyrazolo[1,5-a]pyrazine-3,5(4H)-dicarboxamide]	0.01 to 10	0.01 to 10
CC(C)(NC(=O)N1CCn2nc(-c3cccc(Cl)c3)c(C(N)=O)c2C1)C1CCC(F)(F)CC1 [Compound 233, 2-(3-Chlorophenyl)-N^5-(2-(4,4-difluorocyclohexyl)propan-2-yl)-6,7-dihydropyrazolo[1,5-a] pyrazine-3,5(4H)-dicarboxamide]	0.01 to 10	0.01 to 10
CC(C)(NC(=O)N1CCn2nc(-c3ccc(Cl)c(Cl)c3)c(C(N)=O)c2C1)C1CCC(F)(F)CC1 [Compound 234, 2-(3,4-Dichlorophenyl)-N^5-(2-(4,4-difluorocyclohexyl)propan-2-yl)-6,7-dihydropyrazolo[1,5-a] pyrazine-3,5(4H)-dicarboxamide]	0.01 to 10	0.01 to 10
NC(=O)c1c(-c2ccc(F)c(Cl)c2)nn2c1CN(C(=O)NC1(C(F)F)CCC1)CC2 [Compound 235, 2-(3-Chloro-4-fluorophenyl)-N^5-(1-(difluoromethyl)cyclobutyl)-6,7-dihydro pyrazolo[1,5-a]pyrazine-3,5(4H)-dicarboxamide]	0.01 to 10	0.01 to 10
NC(=O)c1c(-c2cccc(Cl)c2)nn2c1CN(C(=O)NC1(C(F)F)CCC1)CC2 [Compound 236, 2-(3-Chlorophenyl)-N^5-(1-(difluoromethyl)cyclobutyl)-6,7-dihydropyrazolo[1,5-a] pyrazine-3,5(4H)-dicarboxamide]	0.01 to 10	0.01 to 10
NC(=O)c1c(-c2ccc(Cl)c(Cl)c2)nn2c1CN(C(=O)NC1(C(F)F)CCC1)CC2 [Compound 237, 2-(3,4-Dichlorophenyl)-N^5-(1-(difluoromethyl)cyclobutyl)-6,7-dihydropyrazolo[1,5-a] pyrazine-3,5(4H)-dicarboxamide]	0.01 to 10	0.01 to 10
NC(=O)c1c(-c2cccc(Cl)c2)nn2c1CN(C(=O)N[C@@H]1CC[C@@H]1C(F)F)CC2 [Compound 239, 2-(3-Chlorophenyl)-N^5-((1R,2S)-2-(difluoromethyl)cyclobutyl)-6,7-dihydropyrazolo[1,5-a] pyrazine-3,5(4H)-dicarboxamide]	0.01 to 10	0.01 to 10
NC(=O)c1c(-c2ccc(F)c(Cl)c2)nn2c1CN(C(=O)N[C@@H]1CC[C@H]1COC(F)F)CC2 [Compound 241, 2-(3-Chloro-4-fluorophenyl)-N^5-((1R,2R)-2-((difluoromethoxy)methyl)cyclobutyl)-6,7-dihydropyrazolo[1,5-a]pyrazine-3,5(4H)-dicarboxamide]	0.01 to 10	0.01 to 10
NC(=O)c1c(-c2ccc(Cl)c(Cl)c2)nn2c1CN(C(=O)N[C@@H]1CC[C@H]1COC(F)F)CC2 [Compound 243, 2-(3,4-Dichlorophenyl)-N^5-((1R,2R)-2-((difluoromethoxy)methyl)cyclobutyl)-6,7-dihydropyrazolo[1,5-a] pyrazine-3,5(4H)-dicarboxamide]	0.01 to 10	0.01 to 10
NC(=O)c1c(-c2ccc(Cl)c(Cl)c2)nn2c1CN(C(=O)NC1CC(C(F)F)C1)CC2 (stereo not shown) [Compound 254, 2-(3,4-Dichlorophenyl)-N^5-(3-(difluoromethyl)cyclobutyl)-6,7-dihydropyrazolo[1,5-a]pyrazine-3,5(4H)-dicarboxamide]	0.01 to 10	0.01 to 10
NC(=O)c1c(-c2ccc(Cl)c(Cl)c2)nn2c1CN(C(=O)NC1CC(C(F)F)C1)CC2 (stereo not shown) [Compound 255, 2-(3,4-Dichlorophenyl)-N^5-(3-(difluoromethyl)cyclobutyl)-6,7-dihydropyrazolo[1,5-a]pyrazine-3,5(4H)-dicarboxamide]	0.01 to 10	0.01 to 10
CC1(NC(=O)N2CCn3nc(-c4ccc(F)c(Cl)c4)c(C(N)=O)c3C2)CC(O)C1 (stereo not shown) [Compound 260, 2-(3-Chloro-4-fluorophenyl)-N^5-(3-hydroxy-1-methylcyclobutyl)-6,7-dihydropyrazolo[1,5-a]pyrazine-3,5(4H)-dicarboxamide]	0.01 to 10	0.01 to 10
NC(=O)c1c(-c2ccc(F)c(Cl)c2)nn2c1CN(C(=O)N[C@H]1C[C@@H](OC(F)(F)F)C1)CC2 [Compound 261, 2-(3-Chloro-4-fluorophenyl)-N^5-((1r,3r)-3-(trifluoromethoxy)cyclobutyl)-6,7-dihydropyrazolo[1,5-a]pyrazine-3,5(4H)-dicarboxamide]	0.01 to 10	0.01 to 10
NC(=O)c1c(-c2cccc(Cl)c2)nn2c1CN(C(=O)N[C@H]1C[C@@H](OC(F)(F)F)C1)CC2 [Compound 262, 2-(3-Chlorophenyl)-N^5-((1r,3r)-3-(trifluoromethoxy)cyclobutyl)-6,7-dihydropyrazolo[1,5-a] pyrazine-3,5(4H)-dicarboxamide]	0.01 to 10	0.01 to 10
NC(=O)c1c(-c2ccc(Cl)c(Cl)c2)nn2c1CN(C(=O)N[C@H]1C[C@@H](OC(F)(F)F)C1)CC2 [Compound 263, 2-(3,4-Dichlorophenyl)-N^5-((1r,3r)-3-(trifluoromethoxy)cyclobutyl)-6,7-dihydropyrazolo[1,5-a] pyrazine-3,5(4H)-dicarboxamide]	0.01 to 10	0.01 to 10
NC(=O)c1c(-c2ccc(F)c(Cl)c2)nn2c1CN(C(=O)N[C@H]1C[C@H](OC(F)(F)F)C1)CC2 [Compound 264, 2-(3-Chloro-4-fluorophenyl)-N^5-((1r,3r)-3-(trifluoromethoxy)cyclobutyl)-6,7-dihydropyrazolo[1,5-a]pyrazine-3,5(4H)-dicarboxamide]	0.01 to 10	0.01 to 10
N#Cc1ccc(O[C@H]2C[C@H](NC(=O)N3CCn4nc(-c5ccc(F)c(Cl)c5)c(C(N)=O)c4C3)C2)cc1 [Compound 266, 2-(3-Chloro-4-fluorophenyl)-N^5-((1r,3r)-3-(4-cyanophenoxyl)cyclobutyl)-6,7-dihydropyrazolo[1,5-a]pyrazine-3,5(4H)-dicarboxamide]	0.01 to 10	0.01 to 10
N#Cc1ccc(O[C@H]2C[C@H](NC(=O)N3CCn4nc(-c5cccc(Cl)c5)c(C(N)=O)c4C3)C2)cc1 [Compound 267, 2-(3-Chlorophenyl)-N^5-((1r,3r)-3-(4-cyanophenoxy)cyclobutyl)-6,7-dihydropyrazolo[1,5-a] pyrazine-3,5(4H)-dicarboxamide]	0.01 to 10	0.01 to 10
CS[C@H]1C[C@@H](NC(=O)N2CCn3nc(-c4ccc(F)c(Cl)c4)c(C(N)=O)c3C2)C1 [Compound 269, 2-(3-Chloro-4-fluorophenyl)-N^5-((1s,3s)-3-(methylthio)cyclobutyl)-6,7-dihydropyrazolo[1,5-a]pyrazine-3,5(4H)-dicarboxamide]	0.01 to 10	0.01 to 10
CS[C@H]1C[C@@H](NC(=O)N2CCn3nc(-c4cccc(Cl)c4)c(C(N)=O)c3C2)C1 [Compound 270, 2-(3-Chlorophenyl)-N^5-((1s,3s)-3-(methylthio)cyclobutyl)-6,7-dihydropyrazolo[1,5-a] pyrazine-3,5(4H)-dicarboxamide]	0.01 to 10	0.01 to 10
